Source: article PMC8669469, “A Novel Locally c-di-GMP-Controlled Exopolysaccharide Synthase Required for Bacteriophage N4 Infection of Escherichia coli” (mBio, 2021)

Molecular target: T1, NfrB (Escherichia coli, UniProt P0AFA5)
T1 construct: soluble MshEN domain, NfrB^414-745
Assay: microscale thermophoresis with purified protein; DRaCALA with […]-c-di-GMP and competition by unlabeled c-di-GMP
Format: binding

T1 sequence (P0AFA5 414-745): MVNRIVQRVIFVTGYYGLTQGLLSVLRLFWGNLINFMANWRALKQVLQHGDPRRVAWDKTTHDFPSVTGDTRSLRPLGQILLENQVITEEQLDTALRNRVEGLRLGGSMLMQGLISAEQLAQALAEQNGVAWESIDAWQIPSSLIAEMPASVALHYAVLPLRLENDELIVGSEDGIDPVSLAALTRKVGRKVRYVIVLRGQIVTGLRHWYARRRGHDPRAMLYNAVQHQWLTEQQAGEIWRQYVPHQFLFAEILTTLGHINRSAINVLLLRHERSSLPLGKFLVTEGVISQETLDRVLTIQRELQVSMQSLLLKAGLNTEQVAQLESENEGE

Question: How did the Kd turn out when Nc1nc2c(ncn2[C@@H]2O[C@@H]3CO[P@](=O)(O)O[C@H]4[C@@H](O)[C@H](n5cnc6c(=O)[nH]c(N)nc65)O[C@@H]4CO[P@](=O)(O)O[C@H]3[C@H]2O)c(=O)[nH]1 [c-di-GMP] was run?
Answer: 1000 ± 350 nM
